{"source": "patent US8142812B2", "about": "“Chemical carrier based on a beta-limit dextrin” (Glycologic Limited, priority 2002, dated 2012)", "assay": "Drug interaction and stability with β-limit dextrin in solution", "format": "physicochemical", "excerpt": "There are many potential applications with respect to dispersing and solubilising insoluble compounds. […] Drug interaction and stability with β-limit dextrin in solution", "key": {"[1]": {"settings": "drug 1% in β-limit dextrin (5%)"}, "[2]": {"settings": "drug 1% in β-limit dextrin (10%)"}}}
{"compound": "Cn1c(=O)c2[nH]cnc2n(C)c1=O", "note": "[Theophylline]", "values": [{"measurement": "Drug interaction and stability in solution", "setting": "drug 1% in Water", "value": "Not suspended"}, {"measurement": "Drug interaction and stability in solution", "setting": "[1]", "value": "Suspended"}, {"measurement": "Drug interaction and stability in solution", "setting": "[2]", "value": "Suspended"}]}
{"compound": "O=C1O[C@H]([C@@H](O)CO)C(O)=C1O", "note": "[Ascorbic acid]", "values": [{"measurement": "Drug interaction and stability in solution", "setting": "drug 1% in Water", "value": "Dissolved"}, {"measurement": "Drug interaction and stability in solution", "setting": "[1]", "value": "Dissolved"}, {"measurement": "Drug interaction and stability in solution", "setting": "[2]", "value": "Dissolved"}]}
{"compound": "CC(=O)Oc1ccccc1C(=O)O", "note": "[Aspirin]", "values": [{"measurement": "Drug interaction and stability in solution", "setting": "drug 1% in Water", "value": "Not suspended"}, {"measurement": "Drug interaction and stability in solution", "setting": "[1]", "value": "Suspended"}, {"measurement": "Drug interaction and stability in solution", "setting": "[2]", "value": "Suspended"}]}
